Results reported in patent publication US12133924B2, “Compositions and methods for organ specific delivery of nucleic acids” (The Board of Regents of The University of Texas System, priority 2018, dated 2024).

What was measured:
C57BL/6 mice [1] = assay: In vivo Luc mRNA delivery after IV injection, ex vivo organ luminescence; parameters: species or system mouse; details: 6 h; for organ of luciferase expression (tissue specific mRNA delivery): IV, 0.1 mg/kg Luc mRNA
Procedure: Next, to test the ability of these mDLNPs to deliver mRNA in vivo, mice were injected with a dose of 0.1 mg/kg of Luc mRNA in each of the formulations. […] Assuming that luciferase expression was detected only in liver, spleen and lung after IV injection, the percentage of luciferase expressed in each organ can be calculated (FIG. 1C). […] However, the greater the DOTAP percentage, the more luminescence is seen in lung tissues, with close to 100% of luminescence seen in the lung when DOTAP percentage is greater than 80% (FIG. 1C).
C57BL/6 mice with weight of 18-20 g, were IV injected by various Luc mRNA formulations at a dose of 0.1 or 0.05 mg/kg. n=2-4 per group. After 6 h, mice were intraperitoneal (IP) injected with D-Luciferin (150 mg/kg) and imaged by an IVIS Lumina system (Perkin Elmer). For biodistribution, C57BL/6 mice were IV injected with Cy5-Luc mRNA formulations at a dose of 0.5 mg/kg. Ex vivo imaging (Cy5 channel) was performed 6 h post injection.

C57BL/6 mice [2] = assay: Biodistribution of Cy5-Luc mRNA formulations; assay type: in vivo, mouse; details: IV, 0.5 mg/kg, 6 h
Procedure: To test the organ biodistributions of specific DOTAP formulations in greater depth, PBS or liver targeting NPs (mDLNP), spleen targeting NPs (DOTAP10) and lung targeting NPs (DOTAP50) were injected into C57BL/6 mice (n=2) at a dose of 0.5 mg/kg Cy5-Luc mRNA (dye labeled mRNA to track RNA LNPs). 6 h post injection, major organs were collected and imaged (FIG. 3A). The organ distribution of formulations was changed by the amount of DOTAP, and accumulation in liver gradually moved to lung with increasing DOTAP percentages, but regardless of DOTAP percentage, there are still NPs present in the liver (FIG. 7, FIG. 8). […] Further, considering the similar size distribution and EE between these formulations, zeta-potential and pKa may play roles in tissue targeting mRNA expression.
Mechanistic experiments were conducted to explore how and why inclusion of extra lipids in defined categories controls mRNA delivery to different organs. It is logical that LNPs that deliver to cells within the lungs should biodistribute (accumulate) in the lungs. Cy5-labeled mRNA was delivered to track the in vivo distribution of 5A2-SC8 LNPs containing SORT lipids with lung (DOTAP quaternary amino lipid), spleen (18PA anionic lipid and DSPC zwitterionic lipid) and liver (DODAP ionizable tertiary amino lipid) tropism (FIGS. 27A & 28). […]

HeLa-Luc cells = assay: Cellular uptake and uptake mechanism in HeLa-Luc cells; assay type: cell-based; details: pre-incubation 1 h, then 24 nM sgLuc, 30 min
From the text: First, DOTNPs containing Cas9/sgRNA RNPs that were tagged by a green fluorescent EGFP were tracked by confocal microscopy (FIG. 12A). […] Green: EGFP fused Cas9 protein; Blue: nuclei stained with Hoechst 33342. Red arrows indicated the process of DOTNP10 entering into nucleus. (FIG. 12B)
To evaluate this strategy, 5A2-SC8 was selected as the ionizable cationic lipid because 5A2-SC8 LNPs safely deliver short siRNAs/miRNAs and long mRNAs to mice with compromised liver function, including MYC-driven liver cancer (Zhou et al., 2016; Zhang et al., 2018a; Zhang et al., 2018b) or genetic knockout of fumarylacetoacetate hydrolase (FAH) (Cheng et al., 2018). Introduction of a permanently cationic lipid (e.g. DOTAP) into traditional 4-component 5A2-SC8 LNP formulations indeed allowed controlled self-assembly to occur by mixing an ethanol solution of lipids with a PBS solution of RNPs (1/3, v/v). […] Initially using sgRNA targeting reporter Luciferase (sgLuc), the size of LNPs with 10 mole % DOTAP incorporation (5A2-DOT-10: 5A2-SC8/DOPE/Cho1/DMG-PEG/DOTAP=15/15/30/3/7 (mol/mol)) was observed, prepared using PBS buffer were slightly larger than nanoparticles without RNP loading. […]
To examine the uptake mechanism, assays of specific inhibition on endocytosis pathways were evaluated using Hela-Luc cells. […] The cells were then collected and analyzed by flow cytometry. […]

Td-Tomato mice = assay: sgRNA screening in Td-Tomato mice; assay type: in vivo, mouse; details: mDLNP, Cas9/sgRNA 4/1 wt/wt, total 3 mg/kg IV, day 7
From the text: These sgRNAs are sgTom1, sgTom2 and sgLoxP. […] Considering the weak PAM of sgLoxP (NAG), sgTom1 was finally chosen for further experiments.

Row | Molecule | organ of luciferase expression (tissue specific mRNA delivery) (C57BL/6 mice [1]) | further results
1 | CCCCCCCCCCCCCC(=O)OC[C@H](COP(=O)(O)O)OC(=O)CCCCCCCCCCCCC [14PA, 1,2-dimyristoyl-sn-glycero-3-phosphate] | exclusively spleen | –
2 | CCCCCCCC/C=C\CCCCCCCC(=O)OCC(O)COP(=O)(O)OCC(COC(=O)CCCCCCC/C=C\CCCCCCCC)OC(=O)CCCCCCC/C=C\CCCCCCCC (stereo not shown) [18BMP, sn-(3-oleoyl-2-hydroxy)-glycerol-1-phospho-sn-3′-(1′,2′-dioleoyl)-glycerol] | exclusively spleen | –
3 | CCCCCCCC/C=C\CCCCCCCC(=O)OC[C@H](COP(=O)(O)O)OC(=O)CCCCCCC/C=C\CCCCCCCC [18PA, 1,2-dioleoyl-sn-glycero-3-phosphate] | exclusively spleen | organ distribution of Cy5-labeled mRNA (C57BL/6 mice [2]): increased uptake into the spleen
4 | CCCCCCCCCCC(O)CN(CCN1CCN(CCN(CC(O)CCCCCCCCCC)CC(O)CCCCCCCCCC)CC1)CCN(CC(O)CCCCCCCCCC)CC(O)CCCCCCCCCC (stereo not shown) [C12-200] | enhanced liver delivery without any luciferase expression in the lungs | delivery efficacy compared with original mDLNP formulation (C57BL/6 mice [1]; 0.1 mg/kg, n=2): much better delivery efficacy than original mDLNP formulation
5 | CCCCCCCCCCCCCCCCCC[N+](C)(C)CCCCCCCCCCCCCCCCCC [DDAB, dimethyldioctadecylammonium] | liver to spleen to lung based on SORT lipid percentage | organ of luciferase signal at 40% SORT lipid (C57BL/6 mice [1]; 0.1 mg/kg): high luciferase signal was observed exclusively in the lungs
6 | CCCCCCCC/C=C\CCCCCCCC(=O)OCC(C[N+](C)(C)CCOP(=O)([O-])OCC)OC(=O)CCCCCCC/C=C\CCCCCCCC (stereo not shown) [DOCPe, 2-((2,3-bis(oleoyloxy)propyl)dimethylammonio)ethyl ethyl phosphate] | move from liver to spleen | –
7 | CCCCCCCC/C=C\CCCCCCCC(=O)OCC(CN(C)C)OC(=O)CCCCCCC/C=C\CCCCCCCC (stereo not shown) [DODAP, 1,2-dioleoyl-3-dimethylammonium-propane] | enhanced liver delivery without any luciferase expression in the lungs | mRNA delivery when added to C2 LNPs (no ionizable cationic lipid) (C57BL/6 mice [1]; 0.1 mg/kg, n=2): failed to enable significant mRNA delivery
8 | CCCCCCCC/C=C\CCCCCCCC(=O)OCC(C[N+](C)(C)C)OC(=O)CCCCCCC/C=C\CCCCCCCC (stereo not shown) [DOTAP, 1,2-dioleoyl-3-trimethylammonium-propane] | liver to spleen to lung based on SORT lipid percentage | organ distribution of Cy5-labeled mRNA (C57BL/6 mice [2]): progressive increase in lung accumulation; mRNA delivery when added to C2 LNPs (no ionizable cationic lipid) (C57BL/6 mice [1]; 0.1 mg/kg, n=2): failed to enable significant mRNA delivery
9 | CCCCCCCCCCCCCCCCCC(=O)OC[C@H](COP(=O)([O-])OCC[N+](C)(C)C)OC(=O)CCCCCCCCCCCCCCCCC [DSPC, 1,2-distearoyl-sn-glycero-3-phosphocholine] | move from liver to spleen | –
10 | CCCCCCCCCCCCCC(=O)OCC(COP(=O)(OCC)OCC[N+](C)(C)C)OC(=O)CCCCCCCCCCCCC.Cl (stereo not shown) [EPC, 1,2-dimyristoyl-sn-glycero-3-ethylphosphocholine] | liver to spleen to lung based on SORT lipid percentage | organ of luciferase signal at 40% SORT lipid (C57BL/6 mice [1]; 0.1 mg/kg): high luciferase signal was observed exclusively in the lungs
11 | Methyl-o-cyclodextrin [MβCD] | – | effect of endocytosis inhibitor on uptake of 5A2-DOT-10 LNPs (HeLa-Luc cells): significantly inhibited
12 | sgTom1: sgRNA, AAGTAAAACCTCTACAAATG (SEQ ID NO: 1) (chemically modified sgRNA from Synthego, pattern not given here) | – | induction of TdTomato in liver (Td-Tomato mice): more successful at inducing TdTomato than sgTom2
